From patent US20190292514A1, “FERMENTATION MEDIUM COMPRISING CHELATING AGENT” (priority 2016, published 2019)

Tests used:
[1] = Fermentation medium with trace element solutions and different chelating agents: precipitation; format: physicochemical; details: for precipitation in fermentation medium, pH adjustment to 6: samples with pH adjustment to 6; for precipitation in fermentation medium, pH adjustment to 6 / precipitation in fermentation medium, pH adjustment to 7.7: 24 h storage; for precipitation in fermentation medium, pH adjustment to 7.7: samples with pH adjustment to 7.7
Method: A fermentation medium was mixed with different chelating agents. Therefore, deionized water, Ca(NO3)2*4 H2O, MgSO4*7H2O, NH4H2PO4, and KH2PO4 were mixed together in this certain order with the respective chelating agent. Each chelating agent was weight equimolar to the utilized divalent cations. Afterwards the pH is measured. All three media were aliquoted six times each. Three aliquots of each medium were adjusted to pH 6.7, the other three samples to pH 7.7. Samples were mixed with the trace element solutions as described in Example 1 and stored at 35° C., room temperature and 4° C. for 24 h. Then color formation and precipitation were characterized.

[2] = Trace element solutions with different chelating agents: pH, color and precipitation; format: physicochemical; details: for color development and clarity of trace element solution after final mixing: after addition of Na2MoO4 and final mixing (EDTA: after pH adjustment to pH 4); for measured pH value of trace element solution: after addition of all salts and final mixing, chelating agent equimolar to divalent cations; for precipitation of trace element solution after storage for 24 h and pH adjustment to pH 6: storage 24 h at room temperature or 4° C., pH readjusted to pH 6; for complexation and precipitation compared with citrate (summary): trace element solutions
Source text: A trace element solution was mixed together with one of the following chelating agents: citric acid, […], DTPA, EGTA, or […]. Therefore, at first each chelating agent was weight equimolar to the utilized divalent cations. […] After each compound supplementation the solutions were characterized regarding pH value, color and precipitation. After the addition of the last compound, i.e., Na2MoO4, the solutions were aliquoted. […] Afterwards samples were again characterized by pH value, color and precipitation behavior.

[3] = system: Bacillus licheniformis producing a subtilisin protease; test: Protease formation in microtiter plate cultivation, casein based activity assay; format: cell-based; details: normalized activity units; for enzyme (protease) activity compared with citrate: trace element solution pH 6.7 and pH 7.7, μL scale; for enzyme (protease) activity lower than with citrate: comparable for pH 6.7 and pH 7.7, μL scale
Method: Glucose was supplied in total in an amount of 14 g/I for a cultivation time of 48 h. […] The different fermentation media were aliquoted to a BioLector Flowerplate/microtiter plate […] labs) 700 μL each and cultivated at 30° C., shaker frequency 1200 rpm for 48 h after inoculating with Bacillus licheniformis producing a subtilisin protease. During the cultivation oxygen partial pressure, pH and scattered light for biomass growth are measured online by optical sensors every 15 min. For characterization of protease formation enzyme activity was measured by casein based activity assay.

[4] = system: Bacillus licheniformis producing a subtilisin protease; test: Microtiter plate cultivation, biomass growth by scattered light; format: cell-based; details: μL scale; for development of biomass (scatter plot) / maximal biomass values lower compared to MGDA or NTA: 30° C., 48 h; for development of biomass (scatter plot): chelating agent equimolar; for higher scatter (growth and maximal scatter values) compared to citric acid, EGTA, HEEDTA, DTPA and EDTA: FIG. 1
Method: Glucose was supplied in total in an amount of 14 g/I for a cultivation time of 48 h. […] The different fermentation media were aliquoted to a BioLector Flowerplate/microtiter plate […] labs) 700 μL each and cultivated at 30° C., shaker frequency 1200 rpm for 48 h after inoculating with Bacillus licheniformis producing a subtilisin protease. During the cultivation oxygen partial pressure, pH and scattered light for biomass growth are measured online by optical sensors every 15 min.

[5] = system: Bacillus licheniformis producing a subtilisin protease; test: Fed-batch cultivation process in 20 L scale, protease formation; format: cell-based; details: 20 L scale fed-batch; for STY (productivity), space time yield normalized to % / Titer (productivity), normalized to %: 37° C., pH 7.7, 2 mL/L chelating agent, citric acid = 100%
Method: The fermentation processes were conducted in a baffled stirred tank reactor (STR) with pH, pO2 and temperature probes in a medium with glucose as main carbon source and complex plant protein as N-source. The concentration of O2 and CO2 were monitored by gas analyses. For the cultivations, the fedbatch mode was chosen with a start working volume of 10 L. As bioreactors, 21 L steal vessels were used with 3 rushton turbines with 6 blades.
Medium preparation and sterilization for seed and main culture medium took place in the bioreactor, respectively. The medium contained complex plant protein, NH4H2PO4, KH2PO4, Mn(II)SO4*H2O, Fe(II)SO4*7H2O, MgSO4*7H2O, Ca(NO3)2*4 H2O, trace element solution as described above, antifoam and 2 mL/L MGDA or citric acid. pH was adjusted to pH 6.5. The medium was sterilized in the bioreactor under stirred conditions (600 rpm) for 60 min at 121° C. For inoculation with Bacillus licheniformis producing a subtilisin protease 2% of the starting working volume was used from a seed culture fermenter with the same medium. Seed culture cultivation was conducted at 37° C. and harvested during exponential growth phase after 16 h. The main cultivation was conducted at 37° C., with pO2 dependent stirred cascade from 350-1400 rpm, pH 7.7 and an aeration rate of 1.5 wvvm. The glucose feed was started 8 h after inocu lation.

SMILES | precipitation in fermentation medium, pH adjustment to 6 [1] | precipitation in fermentation medium, pH adjustment to 7.7 [1] | color development and clarity of trace element solution after final mixing [2] | measured pH value of trace element solution [2] | precipitation of trace element solution after storage for 24 h and pH adjustment to pH 6 [2] | complexation and precipitation compared with citrate (summary) [2] | enzyme (protease) activity compared with citrate [3] | development of biomass (scatter plot) [4] | higher scatter (growth and maximal scatter values) compared to citric acid, EGTA, HEEDTA, DTPA and EDTA [4] [%] | precipitation in fermentation medium ([1]; all samples, pH 6.7 and 7.7, 35° C., room temperature and 4° C. for 24 h) | STY (productivity), space time yield normalized to % [5] [%] | Titer (productivity), normalized to % [5] [%] | maximal biomass values lower compared to MGDA or NTA [4] | enzyme (protease) activity lower than with citrate [3] | precipitation on supplementation of CuSO4 ([2]; during preparation of the trace element solution) | product titer and space time yields versus citric acid [5] | precipitation of trace element solution after storage for 3 h at 4° C. ([2]; 3 h at 4° C.)
O=C(O)CN(CC(=O)O)CC(=O)O [NTA, nitrilotriacetic acid] | low precipitations | no precipitations occurred | emerald green and was a crystal clear solution | 2.5 | Neither after storage time of 24 h nor after pH adjustment to pH of 6 any precipitates occurred | better results than citrate | on a comparable level as the prior art standard citrate | fastest growth and highest values | 20 |  |  |  |  |  |  |  | 
O=C(O)CN(CCN(CC(=O)O)CC(=O)O)CCN(CC(=O)O)CC(=O)O [DTPA, diethylene triamine pentaacetic acid] |  |  | dark green and was a clear solution | 2.6 | no precipitation was detected | better results than citrate |  | no growth was detected |  |  |  |  |  |  |  |  | 
O=C(O)CC(O)(CC(=O)O)C(=O)O [citric acid] |  |  | emerald green and was a crystal clear solution | 4.6 | precipitates formed a red pellet |  |  | biomass growth started delayed |  | strong precipitations in all samples | 100 | 100 | about 20% |  |  |  | 
O=C(O)CN(CCO)CCN(CC(=O)O)CC(=O)O [HEEDTA, hydroxyethylethylene diamine triacetic acid] |  |  | dark blue and was a clear solution | 2.6 | no precipitation was detected | better results than citrate |  | strong delayed growth and lower biomass development |  |  |  |  |  | 60% |  |  | 
O=C(O)CN(CCOCCOCCN(CC(=O)O)CC(=O)O)CC(=O)O [EGTA, ethylene glycol tetraacetic acid] |  |  | dark blue and was a clear solution | 2.7 | the solution turned darker and brownish |  |  | biomass growth started delayed |  |  |  |  | about 20% | about 25% |  |  | 
O=C(O)CN(CCN(CC(=O)O)CC(=O)O)CC(=O)O [EDTA, ethylene diamine tetraacetic acid] |  |  | blue and clear solution | 3 | no further precipitation was noticed |  |  | no growth was detected |  |  |  |  |  |  | strong white precipitates occurred |  | 
CC(C(=O)O)N(CC(=O)O)CC(=O)O (stereo not shown) [MGDA, methyl glycine diacetic acid] | low precipitations | no precipitations occurred | green blue and crystal clear solution | 2.8 | Neither after storage for 24 h nor after pH adjustment to pH of 6 any precipitates occurred | better results than citrate | on a comparable level as the prior art standard citrate | fastest growth and highest values | 20 |  | 110 | 104 |  |  |  | higher product titer and space time yields | 
O=C(O)CC[C@@H](C(=O)O)N(CC(=O)O)CC(=O)O [GLDA, glutamic acid N,N-diacetic acid] |  |  | light blue and was a crystal clear solution | 3.7 | precipitates were formed |  |  |  |  |  |  |  |  |  |  |  | precipitates were detected
